Reference: PubChem BioAssay (NCI)
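Each compound was tested at five concentrations against cells in 96-well plates for 48 hours. GI50 is the concentration that inhibits growth by half. TGI: concentration producing complete growth inhibition.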

What was measured:
Assay in all cases: growth of human tumour cells (NCI), 48 h
[1] = tested on: U251 CNS
[2] = tested on: NCI-H23 lung
[3] = tested on: MDA-MB-435
[4] = tested on: TK-10 renal
[5] = tested on: SF-268 CNS
[6] = tested on: CAKI-1 renal
[7] = tested on: K-562 leukemia
[8] = tested on: SF-539 CNS
[9] = tested on: MDA-MB-231 breast
[10] = tested on: HOP-62 NSCLC
[11] = tested on: SF-295 CNS
[12] = tested on: OVCAR-8 ovarian
[13] = tested on: EKVX NSCLC
[14] = tested on: SNB-75 CNS
[15] = tested on: SN12C renal
[16] = tested on: DU-145 prostate
[17] = tested on: HCT-15 colon
[18] = tested on: ACHN renal
[19] = tested on: UACC-257 melanoma
[20] = tested on: COLO 205 colon
[21] = tested on: SK-MEL-28 melanoma
[22] = tested on: M14 melanoma
[23] = tested on: SK-MEL-2 melanoma
[24] = tested on: UACC-62 melanoma
[25] = tested on: NCI-H226 lung
[26] = tested on: BT-549 breast
[27] = tested on: 786-0 renal
[28] = tested on: OVCAR-5 ovarian
[29] = tested on: MALME-3M melanoma
[30] = tested on: SNB-19 CNS
[31] = tested on: MCF7 breast
[32] = tested on: HS 578T breast
[33] = tested on: IGROV1 ovarian
[34] = tested on: HCT-116 colon
[35] = tested on: SR leukemia
[36] = tested on: CCRF-CEM leukemia
[37] = tested on: T-47D breast
[38] = tested on: PC-3 prostate
[39] = tested on: NCI-H460 lung
[40] = tested on: KM12 colon
[41] = tested on: A549 NSCLC
[42] = tested on: HOP-92 NSCLC
[43] = tested on: SW-620 colon
[44] = tested on: HT29 colon
[45] = tested on: OVCAR-4 ovarian
[46] = tested on: HCC-2998 colon
[47] = tested on: RPMI-8226 leukemia
[48] = tested on: RXF 393 renal
[49] = tested on: UO-31 renal
[50] = tested on: A498 renal
[51] = tested on: SK-OV-3 ovarian
[52] = tested on: MOLT-4 leukemia
[53] = tested on: HL-60(TB) leukemia
[54] = tested on: LOX IMVI melanoma
[55] = tested on: NCI/ADR-RES ovarian
[56] = tested on: OVCAR-3 ovarian
[57] = tested on: SK-MEL-5 melanoma

O[C@H](c1cc(C(F)(F)F)nc2c(C(F)(F)F)cccc12)[C@@H]1CCCCN1
GI50 [1]: 3.05 µM
TGI [1]: 8.38 µM
GI50 [2]: 4.75 µM
TGI [2]: 16.6 µM
GI50 [3]: 2.43 µM
TGI [3]: 7.07 µM
GI50 [4]: 2.85 µM
TGI [4]: 10.4 µM
GI50 [5]: 3.54 µM
TGI [5]: 15 µM
GI50 [6]: 1.96 µM
TGI [6]: 7.29 µM
GI50 [7]: 2.87 µM
TGI [7]: 9.17 µM
GI50 [8]: 6.43 µM
TGI [8]: 15 µM
GI50 [9]: 1.78 µM
TGI [9]: 4.08 µM
GI50 [10]: 4.73 µM
TGI [10]: 11.8 µM
GI50 [11]: 2.08 µM
TGI [11]: 5.36 µM
GI50 [12]: 5.11 µM
TGI [12]: 14.7 µM
GI50 [13]: 4.32 µM
TGI [13]: 17.3 µM
GI50 [14]: 2.21 µM
TGI [14]: 11.5 µM
GI50 [15]: 4.19 µM
TGI [15]: 14 µM
GI50 [16]: 3.41 µM
TGI [16]: 10.6 µM
GI50 [17]: 11.9 µM
TGI [17]: 27 µM
GI50 [18]: 2.82 µM
TGI [18]: 10.7 µM
GI50 [19]: 3.84 µM
TGI [19]: 9.11 µM
GI50 [20]: 1.98 µM
TGI [20]: 4.27 µM
GI50 [21]: 2.29 µM
TGI [21]: 5.63 µM
GI50 [22]: 2.53 µM
TGI [22]: 6.69 µM
GI50 [23]: 3.26 µM
TGI [23]: 11.9 µM
GI50 [24]: 5.9 µM
TGI [24]: 17.5 µM
GI50 [25]: 6.72 µM
TGI [25]: 22.6 µM
GI50 [26]: 12.1 µM
TGI [26]: 25.5 µM
GI50 [27]: 4.68 µM
TGI [27]: 12.5 µM
GI50 [28]: 7.21 µM
TGI [28]: 20.7 µM
GI50 [29]: 0.875 µM
TGI [29]: 5.73 µM
GI50 [30]: 7.19 µM
TGI [30]: 20.9 µM
GI50 [31]: 2.46 µM
TGI [31]: 6.8 µM
GI50 [32]: 4.35 µM
TGI [32]: 25.5 µM
GI50 [33]: 1.17 µM
TGI [33]: 4.14 µM
GI50 [34]: 2.3 µM
TGI [34]: 5.44 µM
GI50 [35]: 2.32 µM
TGI [35]: 9.5 µM
GI50 [36]: 8.52 µM
TGI [36]: 40.7 µM
GI50 [37]: 3.82 µM
TGI [37]: 16 µM
GI50 [38]: 2.08 µM
TGI [38]: 5.79 µM
GI50 [39]: 2.28 µM
TGI [39]: 5.28 µM
GI50 [40]: 1.63 µM
TGI [40]: 3.34 µM
GI50 [41]: 5.25 µM
TGI [41]: 16.3 µM
GI50 [42]: 1.79 µM
TGI [42]: 8.43 µM
GI50 [43]: 2.05 µM
TGI [43]: 4.52 µM
GI50 [44]: 2.49 µM
TGI [44]: 5.98 µM
GI50 [45]: 4.45 µM
TGI [45]: 15 µM
GI50 [46]: 1.85 µM
TGI [46]: 4.13 µM
GI50 [47]: 11.2 µM
TGI [47]: 42.8 µM
GI50 [48]: 3.82 µM
TGI [48]: 13.5 µM
GI50 [49]: 1.88 µM
TGI [49]: 9.48 µM
GI50 [50]: 8.98 µM
TGI [50]: 22.1 µM
GI50 [51]: 6.11 µM
TGI [51]: 17.8 µM
GI50 [52]: 3.51 µM
TGI [52]: 11.1 µM
GI50 [53]: 2.08 µM
TGI [53]: 4.51 µM
GI50 [54]: 1.51 µM
TGI [54]: 2.99 µM
GI50 [55]: 3.09 µM
TGI [55]: 9.49 µM
GI50 [56]: 3.38 µM
TGI [56]: 11.5 µM
GI50 [57]: 3.64 µM
TGI [57]: 8.09 µM
